Source: patent publication US10479792B2, “Compounds” (GlaxoSmithKline Intellectual Property Development Limited, priority 2015, dated 2019)

Tested on: THP-1 cells
Assay: Intramacrophage Leishmania donovani assay (Assay 1), THP-1 cell count (cytotoxicity readout)
Assay type: cell-based
Settings: human, 96 h incubation, read-out: cytotoxicity against THP-1 cells, pEC50 (converted)
Description: Assay 1. Intramacrophage Leishmania donovani Assay
The intramacrophage Leishmania assay was performed using a modified version of the method described in De Rycker et al. (Antimicrob Agents Chemother. 2013 July; 57(7):2913-22. Comparison of a high-throughput high-content intracellular Leishmania donovani assay with an axenic amastigote assay. De Rycker M, Hallyburton I, Thomas J, Campbell L, Wyllie S, Joshi D, Cameron S, Gilbert I H, Wyatt P G, Frearson J A, Fairlamb A H, Gray D W.). Procedure: 350 nl of compound was pre-dispensed into 384 well sterile intermediary plates. For single point screening, amphotericin B was added to all wells of column 24 as a positive control (final concentration 2 μM) and DMSO to column 23. For potency determinations, ten-point, one in three dilution curves were created with the highest concentration being 50 μM and on each plate a control curve of amphotericin B was included. Controls were as follows: columns 11 and 12: DMSO, columns 23 and 24: amphotericin B (final concentration 2 μM). To the intermediary plates, 35 μl of THP-1 media was added and plates were shaken for >5 min to ensure complete mixing. […] For each well, i) THP-1 cell count (cytotoxicity readout) and ii) average number of amastigotes per cell (potency readout) were calculated, both in terms of pEC50 values.

Compound `O=C(Nc1ccc(F)c(-c2ccn3c(N4CCOCC4)cnc3n2)c1)N1CCCC1` [Example 4, N-(4-fluoro-3-(3-morpholinoimidazo[1,2-a]pyrimidin-7-yl)phenyl)pyrrolidine-1-carboxamide] has an EC50 at 96 h of over 50.1 µM.
